Data on 13 molecules can be found in US20260078103A1, “ISOQUINOLONES AS PI3K INHIBITORS” (OnKure, Inc., priority 2022, published 2026).

Each structure is given as a SMILES string.

As usually defined, the IC50 is the concentration that gives 50% inhibition. Usually EC50 stands for the midpoint of the concentration-response curve.

The subject of the first test is phosphorylation of AKT (pAKT) in SKBR3 cells express WT PI3Ka. The test can be described thus: In vitro cell pAKT (Ser473) HTRF, SKBR3 cells. The format is cell-based. To be noted: Homo sapiens, SK-BR-3, 6 h, cellular pAKT. In a few lines: (§1)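 pAKT (Ser473) was quantified by HTRF in lysates from cells exposed 6 h at 37 °C to 10-point compound series, with T47D in insulin-supplemented RPMI/10% FBS and SKBR3 in McCoy's 5a/10% FBS. Controls: 0.1% DMSO (high) and 10 uM alpelisib (low). IC50 from sigmoidal curve fitting.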
In general terms: TR-FRET usually uses a lanthanide donor and a delayed reading to cut background.
`Cc1cc([C@@H](C)Nc2ccccc2C(=O)O)c2cc(N3CCN(C=O)CC3)n(C)c(=O)c2c1` [Example 499]: the IC50 was > 15 µM.

For the molecule `Cc1ncc(-c2cc3c([C@@H](C)Nc4ccccc4C(=O)O)cc(F)cc3c(=O)n2C)s1` [Example 501], the IC50 is > 15 µM.

As for `Cc1ccc(N2CCN(c3cc4c([C@@H](C)Nc5ccccc5C(=O)O)cc(F)cc4c(=O)n3C)CC2(C)C)cn1` [Example 502], the IC50 lay within 0.5 to 2 µM.

`Cc1cc([C@@H](C)Nc2ncccc2C(=O)O)c2cc(N3CCN(CC(F)(F)F)CC3)n(C)c(=O)c2c1` [Example 503]: the IC50 is > 15 µM.

With `Cc1cnc(-c2cc3c([C@@H](C)Nc4ccccc4C(=O)O)cc(F)cc3c(=O)n2C)s1` [Example 504], the concentration for half-maximal inhibition (IC50) was > 15 µM.

For the molecule `C[C@@H](Nc1ccccc1C(=O)O)c1cc(F)cc2c(=O)n(C)c(-c3cnc(C(F)(F)F)s3)cc12` [Example 508], the IC50 is > 15 µM.

`Cc1cc([C@@H](C)Nc2ccccc2C(=O)O)c2cc(N3CCN(c4cnc(C(F)(F)F)nc4)CC3)n(C)c(=O)c2c1` [Example 509]: the half-maximal inhibitory concentration (IC50) lay within 2 to 15 µM.

As to `C[C@@H](Nc1ccccc1C(=O)O)c1cc(F)cc2c(=O)n(C)c(N3CCN(CC(F)(F)F)C(C)(C)C3)cc12` [Example 510], the IC50 was > 15 µM.

Consider `C[C@@H](Nc1ccccc1C(=O)O)c1cc(F)cc2c(=O)n(C)c(N3CC4CCC(C3)N4CC(F)(F)F)cc12` [Example 511], for which the IC50 is > 15 µM.

`Cc1cc(N2CCN(c3cc4c([C@@H](C)Nc5ccccc5C(=O)O)cc(F)cc4c(=O)n3C)CC2)on1` [Example 512]: the IC50 was in the range of 2 to 15 µM.

As for `COc1ncc(-c2cc3c([C@@H](C)Nc4ccccc4C(=O)O)cc(F)cc3c(=O)n2C)s1` [Example 513], the half-maximal inhibitory concentration (IC50) is > 15 µM.

`Cc1cnc(-c2ncc(-c3cc4c([C@@H](C)Nc5ccccc5C(=O)O)cc(F)cc4c(=O)n3C)cc2F)cn1` [Example 515]: the IC50 was > 15 µM.

Turning to `Cc1cc([C@@H](C)Nc2ccccc2C(=O)O)c2cc(-c3cnc(C(C)C)cn3)n(C)c(=O)c2c1` [Example 516], the half-maximal inhibitory concentration (IC50) is > 15 µM.

A further test has as its system T47D cells expressing mutant PI3Ka (H1047R). The test is described as follows: In vitro cell proliferation, T47D cells (CellTiter-Glo). It is filed as cell-based. To be noted: Homo sapiens, T47D, 72 h, inhibition of proliferation, read-out: Avg T-47D EC50. In a few lines:
(§2)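 Proliferation was read by CellTiter-Glo luminescence after 72 h of exposure to 10-point compound dilutions at 37 °C and 5% CO2. T47D (RPMI, 10% FBS, insulin 0.2 units/mL) and SKBR3 (McCoys 5a, 10% FBS) cells were seeded at 1,500 cells/well. EC50 was fitted from inhibition relative to DMSO and 10 uM Alpelisib.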
For orientation: Cellular ATP, detected with luciferase, serves as a proxy for viable cell number.
Take `Cc1cc([C@@H](C)Nc2ccccc2C(=O)O)c2cc(N3CCN(C=O)CC3)n(C)c(=O)c2c1` [Example 499]: the 50% effective concentration (EC50) was in the range of 0.5 to 2 µM.

In the case of `Cc1ncc(-c2cc3c([C@@H](C)Nc4ccccc4C(=O)O)cc(F)cc3c(=O)n2C)s1` [Example 501], the EC50 was 0.001 to 0.5 µM.

Take `Cc1ccc(N2CCN(c3cc4c([C@@H](C)Nc5ccccc5C(=O)O)cc(F)cc4c(=O)n3C)CC2(C)C)cn1` [Example 502]: the concentration for a half-maximal effect (EC50) lay in the range of 0.001 to 0.5 µM.

As for `Cc1cc([C@@H](C)Nc2ncccc2C(=O)O)c2cc(N3CCN(CC(F)(F)F)CC3)n(C)c(=O)c2c1` [Example 503], the half-maximal effective concentration (EC50) was in the range of 0.5 to 2 µM.

`Cc1cnc(-c2cc3c([C@@H](C)Nc4ccccc4C(=O)O)cc(F)cc3c(=O)n2C)s1` [Example 504]: the EC50 was 0.001 to 0.5 µM.

In the case of `C[C@@H](Nc1ccccc1C(=O)O)c1cc(F)cc2c(=O)n(C)c(-c3cnc(C(F)(F)F)s3)cc12` [Example 508], the concentration giving a half-maximal response (EC50) is 0.5 to 2 µM.

For the molecule `Cc1cc([C@@H](C)Nc2ccccc2C(=O)O)c2cc(N3CCN(c4cnc(C(F)(F)F)nc4)CC3)n(C)c(=O)c2c1` [Example 509], the EC50 was in the range of 0.001 to 0.5 µM.

Consider `C[C@@H](Nc1ccccc1C(=O)O)c1cc(F)cc2c(=O)n(C)c(N3CCN(CC(F)(F)F)C(C)(C)C3)cc12` [Example 510], for which the EC50 lay in the range of 0.001 to 0.5 µM.

With `C[C@@H](Nc1ccccc1C(=O)O)c1cc(F)cc2c(=O)n(C)c(N3CC4CCC(C3)N4CC(F)(F)F)cc12` [Example 511], the 50% effective concentration (EC50) was in the range of 0.001 to 0.5 µM.

In the case of `Cc1cc(N2CCN(c3cc4c([C@@H](C)Nc5ccccc5C(=O)O)cc(F)cc4c(=O)n3C)CC2)on1` [Example 512], the concentration for a half-maximal effect (EC50) lay within 0.001 to 0.5 µM.

Consider `COc1ncc(-c2cc3c([C@@H](C)Nc4ccccc4C(=O)O)cc(F)cc3c(=O)n2C)s1` [Example 513], for which the 50% effective concentration (EC50) lay in the range of 0.001 to 0.5 µM.

As for `Cc1cnc(-c2ncc(-c3cc4c([C@@H](C)Nc5ccccc5C(=O)O)cc(F)cc4c(=O)n3C)cc2F)cn1` [Example 515], the half-maximal effective concentration (EC50) was in the range of 0.001 to 0.5 µM.

In the case of `Cc1cc([C@@H](C)Nc2ccccc2C(=O)O)c2cc(-c3cnc(C(C)C)cn3)n(C)c(=O)c2c1` [Example 516], the EC50 fell in the range of 0.001 to 0.5 µM.

Another test relates to SKBR3 cells express WT PI3Ka. The test is described as follows: In vitro cell proliferation, SKBR3 cells (CellTiter-Glo). The format is cell-based. To be noted: Homo sapiens, SK-BR-3, 72 h, inhibition of proliferation. The gist of the method:
as §2
Regarding `Cc1cc([C@@H](C)Nc2ccccc2C(=O)O)c2cc(N3CCN(C=O)CC3)n(C)c(=O)c2c1` [Example 499], the EC50 was > 15 µM.

Turning to `Cc1ncc(-c2cc3c([C@@H](C)Nc4ccccc4C(=O)O)cc(F)cc3c(=O)n2C)s1` [Example 501], the EC50 was > 15 µM.

In turn, `Cc1ccc(N2CCN(c3cc4c([C@@H](C)Nc5ccccc5C(=O)O)cc(F)cc4c(=O)n3C)CC2(C)C)cn1` [Example 502] returned an EC50 of 2 to 15 µM.

As to `Cc1cc([C@@H](C)Nc2ncccc2C(=O)O)c2cc(N3CCN(CC(F)(F)F)CC3)n(C)c(=O)c2c1` [Example 503], the EC50 is > 15 µM.

As to `Cc1cnc(-c2cc3c([C@@H](C)Nc4ccccc4C(=O)O)cc(F)cc3c(=O)n2C)s1` [Example 504], the EC50 was > 15 µM.

Take `C[C@@H](Nc1ccccc1C(=O)O)c1cc(F)cc2c(=O)n(C)c(-c3cnc(C(F)(F)F)s3)cc12` [Example 508]: the 50% effective concentration (EC50) is > 15 µM.

As for `Cc1cc([C@@H](C)Nc2ccccc2C(=O)O)c2cc(N3CCN(c4cnc(C(F)(F)F)nc4)CC3)n(C)c(=O)c2c1` [Example 509], the half-maximal effective concentration (EC50) lay in the range of 2 to 15 µM.

With `C[C@@H](Nc1ccccc1C(=O)O)c1cc(F)cc2c(=O)n(C)c(N3CCN(CC(F)(F)F)C(C)(C)C3)cc12` [Example 510], the EC50 is > 15 µM.

Regarding `C[C@@H](Nc1ccccc1C(=O)O)c1cc(F)cc2c(=O)n(C)c(N3CC4CCC(C3)N4CC(F)(F)F)cc12` [Example 511], the EC50 lay in the range of 2 to 15 µM.

`Cc1cc(N2CCN(c3cc4c([C@@H](C)Nc5ccccc5C(=O)O)cc(F)cc4c(=O)n3C)CC2)on1` [Example 512] gave a 50% effective concentration (EC50) of 2 to 15 µM.

For the molecule `COc1ncc(-c2cc3c([C@@H](C)Nc4ccccc4C(=O)O)cc(F)cc3c(=O)n2C)s1` [Example 513], the EC50 was > 15 µM.

Molecule `Cc1cnc(-c2ncc(-c3cc4c([C@@H](C)Nc5ccccc5C(=O)O)cc(F)cc4c(=O)n3C)cc2F)cn1` [Example 515] came in with a half-maximal effective concentration (EC50) of 2 to 15 µM.

Take `Cc1cc([C@@H](C)Nc2ccccc2C(=O)O)c2cc(-c3cnc(C(C)C)cn3)n(C)c(=O)c2c1` [Example 516]: the concentration for a half-maximal effect (EC50) was > 15 µM.

The subject of the next test is phosphorylation of AKT (pAKT) in T47D cells expressing mutant PI3Ka (H1047R). The test can be described thus: In vitro cell pAKT (Ser473) HTRF, T47D cells. To be noted: Homo sapiens, T47D, 6 h, cellular pAKT, T47D cells, mutant PI3Ka (H1047R), 6 hours; read-out: Avg T-47D IC50. It is filed as cell-based. The gist of the method: as §1
In the case of `Cc1cc([C@@H](C)Nc2ccccc2C(=O)O)c2cc(N3CCN(C=O)CC3)n(C)c(=O)c2c1` [Example 499], the IC50 fell in the range of 0.5 to 2 µM.

For `Cc1ncc(-c2cc3c([C@@H](C)Nc4ccccc4C(=O)O)cc(F)cc3c(=O)n2C)s1` [Example 501], the IC50 lay in the range of 0.001 to 0.5 µM.

`Cc1ccc(N2CCN(c3cc4c([C@@H](C)Nc5ccccc5C(=O)O)cc(F)cc4c(=O)n3C)CC2(C)C)cn1` [Example 502]: the IC50 fell in the range of 0.001 to 0.5 µM.

With `Cc1cc([C@@H](C)Nc2ncccc2C(=O)O)c2cc(N3CCN(CC(F)(F)F)CC3)n(C)c(=O)c2c1` [Example 503], the IC50 was 0.5 to 2 µM.

With `Cc1cnc(-c2cc3c([C@@H](C)Nc4ccccc4C(=O)O)cc(F)cc3c(=O)n2C)s1` [Example 504], the half-maximal inhibitory concentration (IC50) fell in the range of 0.001 to 0.5 µM.

`C[C@@H](Nc1ccccc1C(=O)O)c1cc(F)cc2c(=O)n(C)c(-c3cnc(C(F)(F)F)s3)cc12` [Example 508]: the half-inhibitory concentration (IC50) was 0.5 to 2 µM.

As to `Cc1cc([C@@H](C)Nc2ccccc2C(=O)O)c2cc(N3CCN(c4cnc(C(F)(F)F)nc4)CC3)n(C)c(=O)c2c1` [Example 509], the IC50 was 0.001 to 0.5 µM.

For `C[C@@H](Nc1ccccc1C(=O)O)c1cc(F)cc2c(=O)n(C)c(N3CCN(CC(F)(F)F)C(C)(C)C3)cc12` [Example 510], the IC50 is 0.001 to 0.5 µM.

Turning to `C[C@@H](Nc1ccccc1C(=O)O)c1cc(F)cc2c(=O)n(C)c(N3CC4CCC(C3)N4CC(F)(F)F)cc12` [Example 511], the IC50 is 0.001 to 0.5 µM.

In the case of `Cc1cc(N2CCN(c3cc4c([C@@H](C)Nc5ccccc5C(=O)O)cc(F)cc4c(=O)n3C)CC2)on1` [Example 512], the IC50 is 0.001 to 0.5 µM.

Consider `COc1ncc(-c2cc3c([C@@H](C)Nc4ccccc4C(=O)O)cc(F)cc3c(=O)n2C)s1` [Example 513], for which the IC50 was 0.001 to 0.5 µM.

Consider `Cc1cnc(-c2ncc(-c3cc4c([C@@H](C)Nc5ccccc5C(=O)O)cc(F)cc4c(=O)n3C)cc2F)cn1` [Example 515], for which the concentration for half-maximal inhibition (IC50) fell in the range of 0.001 to 0.5 µM.

Consider `Cc1cc([C@@H](C)Nc2ccccc2C(=O)O)c2cc(-c3cnc(C(C)C)cn3)n(C)c(=O)c2c1` [Example 516], for which the IC50 fell in the range of 0.001 to 0.5 µM.
